Common to all, as to assay type: functional
Assay [1] concerns the target Mitogen-activated protein kinase 8 (Homo sapiens, UniProt P45983).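 Note: value comes from one member of a kinome-wide kinase profiling panel.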
Assay [2] deals with Serine/threonine-protein kinase D3 (Homo sapiens, UniProt O94806).
Assay [3] concerns the target LIM domain kinase 1 (Homo sapiens, UniProt P53667). Put plainly: Navigating the Kinome. Panel member name: LIMK1.
Assay [4] has as its target Serine/threonine-protein kinase pim-1 (Homo sapiens, UniProt P11309).
For assay [5], the target named is T1, DNA dC->dU-editing enzyme APOBEC-3A (Homo sapiens, UniProt P31941). Put plainly: SAR analysis of small molecule inhibitors of APOBEC3A DNA Deaminase via a fluorescence-based single-stranded DNA deaminase assay. Particulars: read-out: IC50_Mean.
Assay [6] deals with T1, DNA dC->dU-editing enzyme APOBEC-3A. The assay is described as follows: SAR analysis of small molecule inhibitors of APOBEC3A DNA Deaminase via a fluorescence-based single-stranded DNA deaminase assay - Set 2. Conditions: read-out: IC50_Mean.
Assay [7] deals with T2, DNA dC->dU-editing enzyme APOBEC-3G (Homo sapiens, UniProt Q9HC16). Put plainly: SAR analysis of small molecule inhibitors of APOBEC3G DNA Deaminase via a fluorescence-based single-stranded DNA deaminase assay - Set 2. Particulars: read-out: IC50_Mean.
The target of assay [8] is T2, DNA dC->dU-editing enzyme APOBEC-3G. The assay is described as follows: inhibition of APOBEC3G ssDNA deamination – biochemical, fluorescence, single-stranded DNA substrate, SAR follow-up (AID 602136). Particulars: read-out: IC50_Mean.
For assay [9], the target named is T3, Melanin-concentrating hormone receptor 1 (Homo sapiens, UniProt Q99705). The assay is described as follows: Late-stage fluorescence-based counterscreen for antagonists of the G-protein coupled receptor 7 (GPR7): cell-based dose response assay to identify antagonists of the melanin-concentrating hormone receptor 1 (MCHR1) Set 6.
T3 sequence (Q99705 whole entry): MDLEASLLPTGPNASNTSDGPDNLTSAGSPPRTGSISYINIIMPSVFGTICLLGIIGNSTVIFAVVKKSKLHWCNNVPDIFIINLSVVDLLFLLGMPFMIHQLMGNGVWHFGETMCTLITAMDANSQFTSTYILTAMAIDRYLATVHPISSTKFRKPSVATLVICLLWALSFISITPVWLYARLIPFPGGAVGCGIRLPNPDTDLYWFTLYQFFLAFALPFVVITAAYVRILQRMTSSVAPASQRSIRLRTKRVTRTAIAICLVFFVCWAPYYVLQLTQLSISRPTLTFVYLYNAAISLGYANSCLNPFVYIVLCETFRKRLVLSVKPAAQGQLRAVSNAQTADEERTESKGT
Assay [10] addresses T4, Neuropeptides B/W receptor type 1 (Homo sapiens, UniProt P48145).
T4 sequence (P48145 whole entry): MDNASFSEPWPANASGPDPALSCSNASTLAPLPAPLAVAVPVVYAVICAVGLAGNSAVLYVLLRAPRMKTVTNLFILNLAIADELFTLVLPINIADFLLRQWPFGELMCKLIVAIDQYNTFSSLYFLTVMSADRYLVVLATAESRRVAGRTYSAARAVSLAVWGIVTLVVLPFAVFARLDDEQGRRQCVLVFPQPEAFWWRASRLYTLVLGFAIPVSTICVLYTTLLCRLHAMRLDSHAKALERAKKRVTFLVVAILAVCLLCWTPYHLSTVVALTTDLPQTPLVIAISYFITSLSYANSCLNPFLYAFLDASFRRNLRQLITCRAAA
Put plainly: human NPBW1 receptor blockade, IC50 – cell-based, fluorescence, dose response, set 6, late-stage follow-up (AID 588583).

Assay [11] concerns the target RAC-alpha serine/threonine-protein kinase (Homo sapiens, UniProt P31749).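 Note: AKT1 affinity measured as one member of a kinome-wide kinase profiling panel.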
The target of assay [12] is MAP kinase-activated protein kinase 2 (Homo sapiens, UniProt P49137).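 Note: measured as one member of a kinome-wide kinase panel.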
Chain of MAP kinase-activated protein kinase 2 (P49137 whole entry): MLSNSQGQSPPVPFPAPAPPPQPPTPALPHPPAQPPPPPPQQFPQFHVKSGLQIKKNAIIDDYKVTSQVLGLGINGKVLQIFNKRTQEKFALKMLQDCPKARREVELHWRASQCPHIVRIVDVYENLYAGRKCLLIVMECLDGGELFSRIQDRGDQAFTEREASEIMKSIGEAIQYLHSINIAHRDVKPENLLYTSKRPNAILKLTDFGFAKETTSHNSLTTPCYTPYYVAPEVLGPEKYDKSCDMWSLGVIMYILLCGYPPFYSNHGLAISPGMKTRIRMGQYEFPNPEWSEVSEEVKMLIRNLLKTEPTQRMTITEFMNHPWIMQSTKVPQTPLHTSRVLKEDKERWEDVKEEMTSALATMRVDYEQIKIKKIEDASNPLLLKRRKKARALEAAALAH
Assay [13] has as its target Serine/threonine-protein kinase PLK1 (Homo sapiens, UniProt P53350).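 Note: PLK1 measured as one member of a kinome-wide profiling panel.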
Assay [14] addresses Inhibitor of nuclear factor kappa-B kinase subunit beta (Homo sapiens, UniProt O14920).
Assay [15] has as its target Serine/threonine-protein kinase PLK3 (Homo sapiens, UniProt Q9H4B4).
Assay [16] has as its target MAP/microtubule affinity-regulating kinase 3 (Homo sapiens, UniProt P27448).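 Note: MARK3 affinity measured as one member of a kinome panel.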
In assay [17] the target is Serine/threonine-protein kinase Chk1 (Homo sapiens, UniProt O14757).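 Note: measured as one member of a kinome-wide kinase profiling panel.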
Chain of Serine/threonine-protein kinase Chk1 (O14757 whole entry): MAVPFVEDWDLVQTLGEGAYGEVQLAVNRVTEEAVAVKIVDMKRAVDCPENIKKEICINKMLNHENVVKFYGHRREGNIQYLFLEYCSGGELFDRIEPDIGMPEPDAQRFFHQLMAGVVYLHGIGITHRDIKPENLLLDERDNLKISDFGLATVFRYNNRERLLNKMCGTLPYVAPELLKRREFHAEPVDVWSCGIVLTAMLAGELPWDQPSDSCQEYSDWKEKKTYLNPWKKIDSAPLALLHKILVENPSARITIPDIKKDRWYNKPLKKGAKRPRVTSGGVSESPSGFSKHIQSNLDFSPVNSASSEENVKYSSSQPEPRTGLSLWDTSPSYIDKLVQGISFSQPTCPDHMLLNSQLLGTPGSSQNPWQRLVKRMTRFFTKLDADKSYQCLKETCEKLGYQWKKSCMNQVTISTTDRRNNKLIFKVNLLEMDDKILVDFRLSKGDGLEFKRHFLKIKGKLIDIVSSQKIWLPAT
The target of assay [18] is Fibroblast growth factor receptor 1 (Homo sapiens, UniProt P11362).
Assay [19] concerns the target Fibroblast growth factor receptor 3 (Homo sapiens, UniProt P22607).
Assay [20] concerns the target Glycogen synthase kinase-3 beta (Homo sapiens, UniProt P49841).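 Note: value comes from a broad kinome profiling panel, with GSK3B as the panel member.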
The target of assay [21] is Serine/threonine-protein kinase MRCK alpha (Homo sapiens, UniProt Q5VT25).
In assay [22] the target is cAMP-dependent protein kinase catalytic subunit alpha (Homo sapiens, UniProt P17612).
Assay [23] deals with Tyrosine-protein kinase Lyn (Homo sapiens, UniProt P07948).
Assay [24] addresses Aurora kinase A (Homo sapiens, UniProt O14965).
The target in assay [25] is Protein kinase C delta type (Homo sapiens, UniProt Q05655).
Assay [26] concerns the target RAC-gamma serine/threonine-protein kinase (Homo sapiens, UniProt Q9Y243).
Assay [27] addresses Receptor tyrosine-protein kinase erbB-4 (Homo sapiens, UniProt Q15303).
Assay [28] deals with Protein kinase C gamma type (Homo sapiens, UniProt P05129).
In assay [29] the target is Ribosomal protein S6 kinase beta-1 (Homo sapiens, UniProt P23443).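 Note: measured as one member of a kinome-wide profiling panel.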
Chain of Ribosomal protein S6 kinase beta-1 (P23443 whole entry): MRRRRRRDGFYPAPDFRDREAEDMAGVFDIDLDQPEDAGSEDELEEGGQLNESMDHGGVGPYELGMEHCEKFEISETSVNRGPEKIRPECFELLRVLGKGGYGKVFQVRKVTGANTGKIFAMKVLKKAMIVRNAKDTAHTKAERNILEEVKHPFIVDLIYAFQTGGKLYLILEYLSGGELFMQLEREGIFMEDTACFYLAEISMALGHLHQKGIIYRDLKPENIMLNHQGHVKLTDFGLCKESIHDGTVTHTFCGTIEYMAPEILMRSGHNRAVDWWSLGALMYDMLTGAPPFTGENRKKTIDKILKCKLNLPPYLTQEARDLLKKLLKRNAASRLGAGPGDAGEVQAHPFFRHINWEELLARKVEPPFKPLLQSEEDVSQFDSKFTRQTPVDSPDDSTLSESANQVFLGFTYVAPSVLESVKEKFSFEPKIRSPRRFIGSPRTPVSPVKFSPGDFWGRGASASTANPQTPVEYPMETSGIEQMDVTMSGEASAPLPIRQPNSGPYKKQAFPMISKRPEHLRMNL
Assay [30] concerns the target Serine/threonine-protein kinase PAK 4 (Homo sapiens, UniProt O96013).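 Note: value obtained within a kinome profiling panel in which PAK4 was one of the panel members.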
In assay [31] the target is Cyclin-dependent kinase 1 (Homo sapiens, UniProt P06493).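 Note: Kinome-wide panel profiling, with the target listed as panel member CDC2.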
For assay [32], the target named is Serine/threonine-protein kinase Chk2 (Homo sapiens, UniProt O96017).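 Note: CHEK2 entry within a kinome-wide screening panel.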
Assay [33] deals with 3-phosphoinositide-dependent protein kinase 1 (Homo sapiens, UniProt O15530).
Assay [34] deals with Tyrosine-protein kinase Blk (Homo sapiens, UniProt P51451).
Assay [35] deals with Ephrin type-A receptor 2 (Homo sapiens, UniProt P29317).
Assay [36] concerns the target Casein kinase II subunit alpha (Homo sapiens, UniProt P68400).
In assay [37] the target is Mast/stem cell growth factor receptor Kit (Homo sapiens, UniProt P10721).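 Note: KIT entry within a kinase panel assay.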
In assay [38] the target is 5'-AMP-activated protein kinase catalytic subunit alpha-1 (Homo sapiens, UniProt Q13131).
Assay [39] concerns the target T4, Neuropeptides B/W receptor type 1. The assay is described as follows: human NPBW1 receptor blockade, IC50 – cell-based, fluorescence, dose response, set 5, late-stage follow-up (AID 588566).
Assay [40] addresses T3, Melanin-concentrating hormone receptor 1. Put plainly: Late-stage fluorescence-based counterscreen for antagonists of the G-protein coupled receptor 7 (GPR7): cell-based dose response assay to identify antagonists of the melanin-concentrating hormone receptor 1 (MCHR1) Set 5. On the technique in general: Counterscreens check selectivity or assay interference.
Assay [41] concerns the target Protein kinase C zeta type (Homo sapiens, UniProt Q05513).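 Note: measured as one member of a broad kinase profiling panel.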
In assay [42] the target is Cyclin-dependent kinase 2 (Homo sapiens, UniProt P24941).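 Note: CDK2 measured as one member of a broad kinome profiling panel.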
Assay [43] has as its target Ribosomal protein S6 kinase alpha-3 (Homo sapiens, UniProt P51812).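 Note: measured within a kinome-wide profiling panel.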
Assay [44] deals with Multidrug resistance protein CDR2 (Candida albicans (strain SC5314 / ATCC MYA-2876) (Yeast), UniProt P78595). The assay is described as follows: inhibition of Nile Red efflux via Candida CDR2 – S. cerevisiae AD1-8u, singleplex, Cherry Pick1 hits, dose response (AID 588604).

Activity calls are given as the source filed them.

Chain of Serine/threonine-protein kinase pim-1 (P11309 whole entry): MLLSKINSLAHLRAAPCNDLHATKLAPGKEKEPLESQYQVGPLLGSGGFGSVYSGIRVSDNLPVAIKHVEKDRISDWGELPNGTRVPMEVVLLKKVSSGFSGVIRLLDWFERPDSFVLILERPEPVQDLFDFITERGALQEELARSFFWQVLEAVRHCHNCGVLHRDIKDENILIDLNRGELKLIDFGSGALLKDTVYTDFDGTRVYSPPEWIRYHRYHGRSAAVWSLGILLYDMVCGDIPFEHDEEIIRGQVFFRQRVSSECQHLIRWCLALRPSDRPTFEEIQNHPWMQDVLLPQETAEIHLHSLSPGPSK
Chain of MAP/microtubule affinity-regulating kinase 3 (P27448 whole entry): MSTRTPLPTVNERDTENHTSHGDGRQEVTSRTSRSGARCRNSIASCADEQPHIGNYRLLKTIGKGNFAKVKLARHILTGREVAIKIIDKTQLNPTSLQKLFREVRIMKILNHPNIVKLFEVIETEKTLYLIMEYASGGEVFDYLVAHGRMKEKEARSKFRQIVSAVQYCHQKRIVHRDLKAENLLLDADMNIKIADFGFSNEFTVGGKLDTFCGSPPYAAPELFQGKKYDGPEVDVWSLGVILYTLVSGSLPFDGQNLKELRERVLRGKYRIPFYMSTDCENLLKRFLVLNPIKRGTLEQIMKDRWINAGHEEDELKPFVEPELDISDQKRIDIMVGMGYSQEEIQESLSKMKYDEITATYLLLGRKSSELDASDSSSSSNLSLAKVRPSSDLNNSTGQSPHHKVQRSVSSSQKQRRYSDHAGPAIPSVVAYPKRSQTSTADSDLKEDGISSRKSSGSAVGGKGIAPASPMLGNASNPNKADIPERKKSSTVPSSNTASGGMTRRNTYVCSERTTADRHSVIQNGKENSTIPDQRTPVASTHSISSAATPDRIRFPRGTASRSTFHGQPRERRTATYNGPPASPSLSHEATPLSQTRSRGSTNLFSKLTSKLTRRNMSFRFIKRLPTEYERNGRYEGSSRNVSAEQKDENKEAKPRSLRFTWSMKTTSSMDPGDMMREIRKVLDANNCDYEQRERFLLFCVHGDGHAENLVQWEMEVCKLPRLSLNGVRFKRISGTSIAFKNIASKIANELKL
Chain of Glycogen synthase kinase-3 beta (P49841 whole entry): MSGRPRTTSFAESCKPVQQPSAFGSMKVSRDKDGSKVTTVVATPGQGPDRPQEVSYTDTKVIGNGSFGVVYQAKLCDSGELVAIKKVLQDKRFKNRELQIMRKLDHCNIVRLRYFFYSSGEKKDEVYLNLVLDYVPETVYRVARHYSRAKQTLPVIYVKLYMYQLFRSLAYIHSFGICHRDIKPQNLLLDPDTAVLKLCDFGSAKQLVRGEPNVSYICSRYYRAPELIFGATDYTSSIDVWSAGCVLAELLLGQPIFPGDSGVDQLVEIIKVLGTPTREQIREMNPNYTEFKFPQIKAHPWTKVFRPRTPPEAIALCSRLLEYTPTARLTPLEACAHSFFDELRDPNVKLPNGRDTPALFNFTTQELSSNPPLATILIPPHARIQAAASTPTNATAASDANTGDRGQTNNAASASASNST
Chain of RAC-alpha serine/threonine-protein kinase (P31749 whole entry): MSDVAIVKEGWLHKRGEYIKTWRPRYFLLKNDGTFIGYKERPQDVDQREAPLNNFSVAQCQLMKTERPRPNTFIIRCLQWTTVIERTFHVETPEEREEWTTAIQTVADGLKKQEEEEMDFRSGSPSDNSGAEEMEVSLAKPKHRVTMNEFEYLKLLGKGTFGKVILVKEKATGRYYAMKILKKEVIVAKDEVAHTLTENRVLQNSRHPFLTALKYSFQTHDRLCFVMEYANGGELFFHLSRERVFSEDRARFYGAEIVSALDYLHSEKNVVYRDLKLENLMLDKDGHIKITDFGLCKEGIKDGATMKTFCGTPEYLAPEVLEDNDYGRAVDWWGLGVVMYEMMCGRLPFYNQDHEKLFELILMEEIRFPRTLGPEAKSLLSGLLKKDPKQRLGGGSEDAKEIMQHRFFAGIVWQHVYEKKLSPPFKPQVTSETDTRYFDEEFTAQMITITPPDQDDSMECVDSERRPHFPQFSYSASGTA
Chain of Casein kinase II subunit alpha (P68400 whole entry): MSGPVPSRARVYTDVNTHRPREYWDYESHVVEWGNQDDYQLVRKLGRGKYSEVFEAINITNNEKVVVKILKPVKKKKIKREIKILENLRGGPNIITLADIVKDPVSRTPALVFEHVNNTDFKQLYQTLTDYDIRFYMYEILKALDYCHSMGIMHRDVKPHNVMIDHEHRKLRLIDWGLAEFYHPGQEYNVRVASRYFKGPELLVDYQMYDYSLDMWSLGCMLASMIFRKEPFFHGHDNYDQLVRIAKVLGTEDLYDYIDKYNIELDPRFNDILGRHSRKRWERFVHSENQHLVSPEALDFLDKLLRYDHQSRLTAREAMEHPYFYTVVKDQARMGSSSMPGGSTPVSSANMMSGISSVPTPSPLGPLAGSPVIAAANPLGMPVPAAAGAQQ

As usually defined, the Ki is a measure of affinity in units of concentration, obtained from inhibition or displacement. As to `CC(=O)Nc1cc(N)c(C#N)c(OCC(C)C)n1`, the inhibition constant Ki in [1] is 1.58 µM (active); in assay [2], 6.31 µM (active).

Consider `COc1ccccc1NC(=O)c1cnn2c(-c3ccccc3)ccnc12`, for which the inhibitory constant (Ki) is 2.51 µM (active) in [3] and 5.01 µM (active) in [4].

As to `COc1cc(C=Nn2c(S)nnc2-c2[nH]nc3c2CCC3)ccc1O`, the IC50 in [5] is > 99 µM (inactive); in assay [6], > 99 µM (inactive); in [7], 0.732 µM (active); in assay [8] it was 0.808 µM (active).

For the compound `CCc1c(C(C#N)c2ccccc2)cnn(Cc2cccc3ccccc23)c1=O` (configuration not stated), the IC50 in assay [9] and in assay [10] was 4.72 µM (active) in each case.

On to `c1ccc(-c2n[nH]cc2-c2ccncc2)cc1`, for which the Ki in assay [11] was 7.94 µM (active); in assay [12], > 20 µM (inactive); in assay [13], > 20 µM (inactive); in assay [14] it was > 7.94 µM (inactive); in [15], > 20 µM (inactive); in assay [16], 7.94 µM (active). Further, the Ki in [17] was > 20 µM (inactive); in [18], 10 µM (active); in assay [19], > 5.01 µM (inactive); in [20], 0.251 µM (active); in assay [21], 1.26 µM (active); in assay [22] it was 0.794 µM (active). Besides, the Ki was 2 µM (active) in assay [23]; 6.31 µM (active) in [24]; 2.51 µM (active) in assay [25]; 10 µM (active) in assay [26]; 1 µM (active) in assay [27]; > 20 µM (inactive) in assay [28]. Also, the inhibition constant (Ki) in [29] is 2.51 µM (active); in [30] it was > 12.6 µM (inactive); in assay [31] it was 10 µM (active); in assay [32] it was > 25.1 µM (inactive); in assay [33], > 10 µM (inactive); in assay [34], > 3.98 µM (inactive). The Ki in assay [35] was > 20 µM (inactive); in assay [36] it was > 15.8 µM (inactive); in assay [37] it was > 3.16 µM (inactive); in assay [4], 20 µM (active); in [38] it was > 25.1 µM (inactive).

On to `COc1ccc(S(=O)(=O)c2c(Cl)cnn(Cc3cccc4ccccc34)c2=O)cc1`, for which the IC50 is ~6.06 µM (active) in assay [39] and 4.44 µM (active) in [40].

As for `COc1ccc(OC)c(CNC(=O)c2cc(N)c(C#N)c(OC(C)C)n2)c1`, the Ki is 6.31 µM (active) in assay [11]; > 7.94 µM (inactive) in [41]; > 7.94 µM (inactive) in [12]; > 7.94 µM (inactive) in assay [13]; > 7.94 µM (inactive) in [15]; > 6.31 µM (inactive) in [16]. Besides, the Ki is > 7.94 µM (inactive) in assay [17]; 1.58 µM (active) in assay [20]; > 10 µM (inactive) in assay [21]; > 7.94 µM (inactive) in [22]; > 6.31 µM (inactive) in assay [24]; > 7.94 µM (inactive) in assay [25]. The Ki in [26] was > 10 µM (inactive); in assay [28], > 7.94 µM (inactive); in assay [29] it was 0.501 µM (active); in assay [42], > 7.94 µM (inactive); in assay [30] it was > 5.01 µM (inactive); in assay [31], > 7.94 µM (inactive). For the same compound, the Ki is > 10 µM (inactive) in assay [32]; 5.01 µM (active) in assay [43]; > 7.94 µM (inactive) in assay [35]; > 6.31 µM (inactive) in assay [36]; 1 µM (active) in [37]; > 10 µM (inactive) in assay [4]. Further, the inhibition constant (Ki) in assay [38] was 7.94 µM (active).

What is called EC50 is the concentration that produces a half-maximal response. In the case of `O=[N+]([O-])c1cc(/C=N\Nc2ccccn2)ccc1Cl`, the half-maximal effective concentration (EC50) in [44] is 9.33 µM (active).
